# Measured values: ChEMBL document CHEMBL3779887, “Robenidine Analogues as Gram-Positive Antibacterial Agents” (J Med Chem, 2016)
# Calls of active or inactive are those of the source. The calls are words filed in the database; no cut-off is given here.
# Experiments:
# [1] = system: Pseudomonas aeruginosa; assay: Antibacterial activity against Pseudomonas aeruginosa ATCC 27853 after 20 to 24 hrs; type: functional
# [2] = system: Staphylococcus aureus; assay: Antibacterial activity against methicillin-sensitive Staphylococcus aureus ATCC 49775 after 20 to 24 hrs in presence of 50% heat inactivated bovine serum; type: functional
# [3] = system: Staphylococcus aureus; assay: Bactericidal activity against methicillin-sensitive Staphylococcus aureus ATCC 29213 assessed as log reduction in bacterial cell number at 8 times MIC after 8 hrs by time-kill curve analysis; type: functional
# [4] = system: Staphylococcus aureus; assay: Antibacterial activity against methicillin-resistant Staphylococcus aureus after 20 to 24 hrs; type: functional
# [5] = Selectivity index, ratio of GI50 for human HepG2 cells to MIC50 for methicillin-sensitive Staphylococcus aureus clinical isolate; type: functional
# [6] = system: Escherichia coli; assay: Ratio of MIC90 for Escherichia coli ATCC 25922 to MIC90 for Escherichia coli ATCC 25922 in presence of polymyxin B nonapeptide; type: functional
# [7] = system: Staphylococcus aureus; assay: Bactericidal activity against methicillin-sensitive Staphylococcus aureus ATCC 6538 after 24 and 48 hrs; type: functional
# [8] = system: Staphylococcus aureus; assay: Bactericidal activity against methicillin-sensitive Staphylococcus aureus ATCC 29213 after 24 and 48 hrs; type: functional
# [9] = system: Staphylococcus aureus; assay: Bactericidal activity against […] Staphylococcus aureus clinical isolate USA300 assessed as log reduction in bacterial cell number at 2 times MIC after 24 hrs by time-kill curve analysis; type: functional, organism-based
# [10] = system: Staphylococcus aureus; assay: Bactericidal activity against Methicillin-sensitive Staphylococcus aureus ATCC 29213 assessed as log reduction in bacterial cell number at 4 times MIC after 24 hrs by time kill curve analysis; type: functional, organism-based
# [11] = system: Staphylococcus aureus; assay: Bactericidal activity against methicillin-sensitive Staphylococcus aureus ATCC 49775 after 24 and 48 hrs; type: functional
# [12] = system: Staphylococcus aureus; assay: Bactericidal activity against methicillin-sensitive Staphylococcus aureus clinical isolate USA300 assessed as log reduction in bacterial cell number at MIC after 8 hrs by time-kill curve analysis; type: functional
# [13] = Cytotoxicity against human HEL299 cells after 24 hrs by WST-1 based colorimetric assay; type: cell-based, HEL 299
# [14] = system: Staphylococcus aureus; assay: Antibacterial activity against methicillin-sensitive Staphylococcus aureus ATCC 29213 after 20 to 24 hrs in presence of 50% heat inactivated bovine serum; type: functional
# [15] = system: Staphylococcus aureus; assay: Antibacterial activity against methicillin-sensitive Staphylococcus aureus ATCC 29213 after 20 to 24 hrs in presence of 50% heat inactivated bovine serum
# [16] = system: Staphylococcus aureus; assay: Ratio of MBC for methicillin-sensitive Staphylococcus aureus ATCC 49775 to MIC90 for methicillin-sensitive Staphylococcus aureus ATCC 49775; type: functional
# [17] = system: Staphylococcus aureus; assay: Antibacterial activity against methicillin-sensitive Staphylococcus aureus ATCC 49775 after 20 to 24 hrs; type: functional
# [18] = Toxicity in po dosed rat; type: organism-based; conditions: in vivo
# [19] = system: Staphylococcus aureus; assay: Bactericidal activity against […] Staphylococcus aureus clinical isolate USA300 assessed as log reduction in bacterial cell number at 8 times MIC after 8 hrs by time-kill curve analysis; type: functional
# [20] = system: Staphylococcus aureus; assay: Bactericidal activity against methicillin-resistant Staphylococcus aureus clinical isolate after 24 and 48 hrs; type: functional
# [21] = Solubility of the compound at pH 2; type: physicochemical; conditions: buffer
# [22] = Half life of compound in mouse liver microsomes; type: ADME
# [23] = system: Staphylococcus aureus; assay: Bactericidal activity against Methicillin-sensitive Staphylococcus aureus ATCC 29213 assessed as log reduction in bacterial cell number at 2 times MIC after 24 hrs by time kill curve analysis; type: functional, organism-based
# [24] = system: Staphylococcus aureus; assay: Bactericidal activity against methicillin-sensitive Staphylococcus aureus ATCC 29213 assessed as log reduction in bacterial cell number at MIC after 8 hrs by time-kill curve analysis; type: functional
# [25] = Cytotoxicity against human HepG2 cells after 24 hrs by WST-1 based colorimetric assay; type: cell-based
# [26] = system: Staphylococcus aureus; assay: Ratio of MBC for methicillin-sensitive Staphylococcus aureus ATCC 25923 to MIC90 for methicillin-sensitive Staphylococcus aureus ATCC 25923; type: functional
# [27] = Half life of compound in human liver microsomes; type: ADME
# [28] = system: Staphylococcus aureus; assay: Inhibition of biofilm formation in methicillin-resistant Staphylococcus aureus assessed as log reduction at > 43.2 uM after 24 hrs by MBEC assay relative to control; type: functional
# [29] = system: Staphylococcus aureus; assay: Bactericidal activity against […] Staphylococcus aureus clinical isolate USA300 assessed as log reduction in bacterial cell number at 8 times MIC after 24 hrs by time-kill curve analysis; type: functional, organism-based
# [30] = system: Pseudomonas aeruginosa; assay: Ratio of MIC90 for Pseudomonas aeruginosa ATCC 27853 to MIC90 for Pseudomonas aeruginosa ATCC 27853 in presence of polymyxin B nonapeptide; type: functional
# [31] = Lipophilicity, logD of the compound at pH 7.4; type: physicochemical; conditions: buffer
# [32] = system: Pseudomonas aeruginosa; assay: Antibacterial activity against Pseudomonas aeruginosa ATCC 27853 after 20 to 24 hrs in presence of polymyxin B nonapeptide; type: functional
# [33] = Toxicity in po dosed male rabbit; type: organism-based, Oryctolagus cuniculus; conditions: in vivo
# [34] = system: Staphylococcus aureus; assay: Antibacterial activity against methicillin-sensitive Staphylococcus aureus ATCC 29213 after 20 to 24 hrs in presence of 50% heat inactivated bovine serum; remark: listed apart in the source
# [35] = system: Staphylococcus aureus; assay: Ratio of MBC for methicillin-sensitive Staphylococcus aureus ATCC 6538 to MIC90 for methicillin-sensitive Staphylococcus aureus ATCC 6538; type: functional
# [36] = system: Staphylococcus aureus; assay: Antibacterial activity against methicillin-resistant Staphylococcus aureus clinical isolate after 20 to 24 hrs; type: functional
# [37] = system: Staphylococcus aureus; assay: Bactericidal activity against methicillin-sensitive Staphylococcus aureus ATCC 29213 assessed as log reduction in bacterial cell number at 2 times MIC after 8 hrs by time-kill curve analysis; type: functional
# [38] = system: Staphylococcus aureus; assay: Antibacterial activity against methicillin-sensitive Staphylococcus aureus ATCC 29213 after 20 to 24 hrs; type: functional
# [39] = system: Babesia microti; assay: Antiprotozoal activity against Babesia microti ATCC PRA-99 infected in BALB/c mouse assessed as suppression of parasitemia at 25 and 50 mg/kg, administered 4 times daily; type: functional
# [40] = Solubility of the compound at pH 6.5; type: physicochemical; conditions: buffer
# [41] = Intrinsic clearance in mouse liver microsomes assessed per mg of protein; type: ADME; conditions: read-out: CLH
# [42] = system: Escherichia coli; assay: Antibacterial activity against Escherichia coli ATCC 25922 after 20 to 24 hrs in presence of polymyxin B nonapeptide; type: functional
# [43] = system: Staphylococcus aureus; assay: Antibacterial activity against Staphylococcus aureus ATCC 29213 after 20 to 24 hrs in presence of 2% heat inactivated bovine serum; type: functional
# [44] = Intrinsic clearance in human liver microsomes assessed per mg of protein; type: ADME; conditions: read-out: CLH
# [45] = system: Staphylococcus aureus; assay: Bactericidal activity against […] Staphylococcus aureus clinical isolate USA300 assessed as log reduction in bacterial cell number at MIC after 24 hrs by time-kill curve analysis; type: functional, organism-based
# [46] = Selectivity index, ratio of GI50 for human HepG2 cells to MIC50 for methicillin-resistant Staphylococcus aureus clinical isolate; type: functional
# [47] = system: Escherichia coli; assay: Antibacterial activity against Escherichia coli ATCC 25922 after 20 to 24 hrs; type: functional
# [48] = system: Staphylococcus aureus; assay: Bactericidal activity against […] Staphylococcus aureus clinical isolate USA300 assessed as log reduction in bacterial cell number at 2 times MIC after 8 hrs by time-kill curve analysis; type: functional
# [49] = system: Staphylococcus aureus; assay: Antibacterial activity against methicillin-sensitive Staphylococcus aureus ATCC 6538 after 20 to 24 hrs; type: functional
smiles,measurement,setting,value
N=C(N/N=C/c1ccc(Cl)cc1)N/N=C/c1ccc(Cl)cc1 [ROBENIDINE],MIC,[1],> 400 µM
same,MIC90,[2],> 250 µM
same,Activity,[3],>=4 log10CFU/ml
same,MIC,[4],8.1 µM
same,Selectivity Index,[5],2
same,Ratio,[6],10
same,MBC,[7],5.4 µM
same,MBC,[8],5.4 µM
same,Activity,[9],inactive
same,Activity,[10],inactive
same,MBC,[11],5.4 µM
same,Activity,[12],>=4 log10CFU/ml
same,GI50 at 24 h,[13],17.7 µM
same,MIC90,[14],> 250 µM
same,MIC90,[15],> 250 µM
same,Ratio,[16],1
same,MIC90,[17],5.4 µM
same,LD50,[18],3000 mg/kg
same,Activity,[19],>=4 log10CFU/ml
same,MBC,[20],5.4 µM
same,solubility,[21],6.3 µg/mL
same,half-life,[22],> 4.12 h
same,Activity,[23],inactive
same,Activity,[24],>=4 log10CFU/ml
same,GI50 at 24 h,[25],25.4 µM
same,Ratio,[26],1
same,half-life,[27],> 4.12 h
same,FC,[28],<=3
same,Activity,[29],inactive
same,Ratio,[30],10
same,logD,[31],4.5
same,MIC90,[32],21.6 µM
same,LD50,[33],1500 mg/kg
same,MIC90,[34],> 250 µM
same,Ratio,[35],1
same,MIC90,[36],5.4 µM
same,Activity,[37],>=4 log10CFU/ml
same,MIC90,[38],5.4 µM
same,inhibition (INH),[39],100%
same,solubility,[40],< 1.6 µg/mL
same,microsomal CLint,[41],< 7 µL/min/mg
same,MIC90,[42],21.6 µM
same,MIC90,[43],43.1 µM
same,microsomal CLint,[44],< 7 µL/min/mg
same,Activity,[45],inactive
same,Selectivity Index,[46],2
same,MIC,[47],> 400 µM
same,Activity,[48],>=4 log10CFU/ml
same,MIC90,[49],5.4 µM
